IC50 data for 25 compounds are collected here from US20250353820A1, “ANTIVIRAL PYRAZOLOPYRIDINONE COMPOUNDS” (Novartis AG, priority 2019, published 2025).

The target of the assay is human HSV DNA polymerase UL30 (Human herpesvirus 1 (strain 17) (HHV-1) (Human herpes simplex virus 1), UniProt P04293). Nature of the assay: biochemical. The settings on record: 625 pM HSV polymerase, 20 minutes at room temperature; read-out: HSV-polymerase Biochemical IC50.
Regarding `Cn1nc(C(=O)NCc2ccc(Cl)cc2)c2c1C(=O)N(CC1(S(C)(=O)=O)CC1)CC2` [Example 22, N-(4-Chlorobenzyl)-1-methyl-6-((1-(methylsulfonyl)cyclopropyl)methyl)-7-oxo-4,5,6,7-tetrahydro-1H-pyrazolo[3,4-c]pyridine-3-carboxamide], the IC50 (as a rule, the point on the concentration scale where inhibition reaches its midpoint) was found to be 436 nM.

In the case of `Cn1nc(C(=O)NCc2ccc(C#N)c(F)c2)c2c1C(=O)N(CC1(S(C)(=O)=O)CC1)CC2` [Example 23, N-(4-Cyano-3-fluorobenzyl)-1-methyl-6-((1-(methylsulfonyl)cyclopropyl)methyl)-7-oxo-4,5,6,7-tetrahydro-1H-pyrazolo[3,4-c]pyridine-3-carboxamide], the half-inhibitory concentration (IC50) amounted to 345 nM.

For the compound `Cn1nc(C(=O)OCc2ccc(C#N)cc2)c2c1C(=O)N(CC1(S(=O)(=O)C3CC3)CC1)CC2` [Example 24, 4-cyanobenzyl 6-((1-(cyclopropylsulfonyl)cyclopropyl)methyl)-1-methyl-7-oxo-4,5,6,7-tetrahydro-1H-pyrazolo[3,4-c]pyridine-3-carboxylate], the IC50 worked out at 467 nM.

On to `Cn1nc(C(=O)COc2ccc(C#N)cc2)c2c1C(=O)N(CC1(S(=O)(=O)C3CC3)CC1)CC2` [Example 25, 4-(2-(6-((1-(cyclopropylsulfonyl)cyclopropyl)methyl)-1-methyl-7-oxo-4,5,6,7-tetrahydro-1H-pyrazolo[3,4-c]pyridin-3-yl)-2-oxoethoxy)benzonitrile], for which the IC50 was determined as 53 nM.

`Cn1nc(-c2nnc(Cc3ccc(C#N)cc3)o2)c2c1C(=O)N(CC1(S(=O)(=O)C3CC3)CC1)CC2` [Example 26, 4-((5-(6-((1-(Cyclopropylsulfonyl)cyclopropyl)methyl)-1-methyl-7-oxo-4,5,6,7-tetrahydro-1H-pyrazolo[3,4-c]pyridin-3-yl)-1,3,4-oxadiazol-2-yl)methyl)benzonitrile]: the IC50 was 3960 nM.

For the compound `Cn1nc(-c2noc(Cc3ccc(C#N)cc3)n2)c2c1C(=O)N(CC1(S(=O)(=O)C3CC3)CC1)CC2` [Example 28, 4-((3-(6-((1-(Cyclopropylsulfonyl)cyclopropyl)methyl)-1-methyl-7-oxo-4,5,6,7-tetrahydro-1H-pyrazolo[3,4-c]pyridin-3-yl)-1,2,4-oxadiazol-5-yl)methyl)benzonitrile], the 50% inhibitory concentration (IC50) was found to be 29 nM.

With `Cn1nc(-c2nnn(Cc3ccc(C#N)cc3)n2)c2c1C(=O)N(CC1(S(=O)(=O)C3CC3)CC1)CC2` [Example 29, 4-((5-(6-((1-(Cyclopropylsulfonyl)cyclopropyl)methyl)-1-methyl-7-oxo-4,5,6,7-tetrahydro-1H-pyrazolo[3,4-c]pyridin-3-yl)-2H-tetrazol-2-yl)methyl)benzonitrile], the 50% inhibitory concentration (IC50) came to 86 nM.

Regarding `Cn1nc(-c2nnnn2Cc2ccc(C#N)cc2)c2c1C(=O)N(CC1(S(=O)(=O)C3CC3)CC1)CC2` [Example 30, 4-((5-(6-((1-(cyclopropylsulfonyl)cyclopropyl)methyl)-1-methyl-7-oxo-4,5,6,7-tetrahydro-1H-pyrazolo[3,4-c]pyridin-3-yl)-1H-tetrazol-1-yl)methyl)benzonitrile], the IC50 was found to be 6240 nM.

Take `Cn1nc(C2=NOC(c3ccc(C#N)cc3)C2)c2c1C(=O)N(CC1(S(=O)(=O)C3CC3)CC1)CC2` (stereo not shown) [Example 31, 4-(3-(6-((1-(Cyclopropylsulfonyl)cyclopropyl)methyl)-1-methyl-7-oxo-4,5,6,7-tetrahydro-1H-pyrazolo[3,4-c]pyridin-3-yl)-4,5-dihydroisoxazol-5-yl)benzonitrile]: the IC50 amounted to 293 nM.

Turning to `Cn1nc(-c2cc(Cc3ccc(C#N)cc3)on2)c2c1C(=O)N(CC1(S(=O)(=O)C3CC3)CC1)CC2` [Example 34, 4-((3-(6-((1-(Cyclopropylsulfonyl)cyclopropyl)methyl)-1-methyl-7-oxo-4,5,6,7-tetrahydro-1H-pyrazolo[3,4-c]pyridin-3-yl)isoxazol-5-yl)methyl)benzonitrile], the 50% inhibitory concentration (IC50) came to 10 nM.

Consider `Cn1nc(-c2cn(Cc3ccc(C#N)cc3)nn2)c2c1C(=O)N(CC1(S(=O)(=O)C3CC3)CC1)CC2` [Example 35, 4-((4-(6-((1-(Cyclopropylsulfonyl)cyclopropyl)methyl)-1-methyl-7-oxo-4,5,6,7-tetrahydro-1H-pyrazolo[3,4-c]pyridin-3-yl)-1H-1,2,3-triazol-1-yl)methyl)benzonitrile], for which the half-maximal inhibitory concentration (IC50) is 141 nM.

On to `Cn1nc(C(=O)NCc2ccc(Cl)cc2)c2c1C(=O)N(CC1(S(=O)(=O)C(F)F)CC1)CC2` [Example 39, N-(4-Chlorobenzyl)-6-((1-((difluoromethyl)sulfonyl)cyclopropyl)methyl)-1-methyl-7-oxo-4,5,6,7-tetrahydro-1H-pyrazolo[3,4-c]pyridine-3-carboxamide], for which the IC50 was found to be 625 nM.

For the compound `N#Cc1ccc(CNC(=O)c2nn(C3CC3)c3c2CCN(CC2(S(=O)(=O)C4CC4)CC2)C3=O)cc1` [Example 43, N-(4-Cyanobenzyl)-1-cyclopropyl-6-((1-(cyclopropylsulfonyl)cyclopropyl)methyl)-7-oxo-4,5,6,7-tetrahydro-1H-pyrazolo[3,4-c]pyridine-3-carboxamide], the IC50 came to 101 nM.

With `O=C(NCc1ccc(Cl)cc1)c1n[nH]c2c1CCN(CC1(S(=O)(=O)C3CC3)CC1)C2=O` [Example 44, N-(4-Chlorobenzyl)-6-((1-(cyclopropylsulfonyl)cyclopropyl)methyl)-7-oxo-4,5,6,7-tetrahydro-1H-pyrazolo[3,4-c]pyridine-3-carboxamide], the IC50 stood at 137 nM.

Consider `CS(=O)(=O)C1(CN2CCc3c(nn4c3C(=O)N(Cc3ccc(C#N)cc3)CC4)C2=O)CC1` [Example 46, 4-((8-((1-(Methylsulfonyl)cyclopropyl)methyl)-1,7-dioxo-3,4,7,8,9,10-hexahydropyrido[3′,4′: 3,4]pyrazolo[1,5-a]pyrazin-2 (1H)-yl)methyl)benzonitrile], for which the half-inhibitory concentration (IC50) came to 1780 nM.

As for `N#Cc1ccc(CNC(=O)c2nn(CC3(CO)CC3)c3c2CCN(CC2(S(=O)(=O)C4CC4)CC2)C3=O)cc1` [Example 47, N-(4-Cyanobenzyl)-6-((1-(cyclopropylsulfonyl)cyclopropyl)methyl)-1-((1-(hydroxymethyl)cyclopropyl)methyl)-7-oxo-4,5,6,7-tetrahydro-1H-pyrazolo[3,4-c]pyridine-3-carboxamide], the IC50 was found to be 59 nM.

Consider `CS(=O)(=O)C1(CN2CCc3c(C(=O)NCc4ccc(C#N)cc4)nn(CC4(CO)CC4)c3C2=O)CC1` [Example 48, N-(4-Cyanobenzyl)-1-((1-(hydroxymethyl)cyclopropyl)methyl)-6-((1-(methylsulfonyl)cyclopropyl)methyl)-7-oxo-4,5,6,7-tetrahydro-1H-pyrazolo[3,4-c]pyridine-3-carboxamide], for which the 50% inhibitory concentration (IC50) amounted to 801 nM.

With `CC(C)(CO)S(=O)(=O)C1(CN2CCc3c(C(=O)NCc4ccc(C#N)cc4)n[nH]c3C2=O)CC1` [Example 49, N-(4-cyanobenzyl)-6-((1-((1-hydroxy-2-methylpropan-2-yl)sulfonyl)cyclopropyl)methyl)-7-oxo-4,5,6,7-tetrahydro-1H-pyrazolo[3,4-c]pyridine-3-carboxamide], the IC50 came to 37 nM.

As for `Cn1nc(C(=O)NCc2ccc(Cl)cc2)c2c1C(=O)N(CC1(S(=O)(=O)C(C)(C)CO)CC1)CC2` [Example 50, N-(4-Chlorobenzyl)-6-((1-((1-hydroxy-2-methylpropan-2-yl)sulfonyl)cyclopropyl)methyl)-1-methyl-7-oxo-4,5,6,7-tetrahydro-1H-pyrazolo[3,4-c]pyridine-3-carboxamide], the IC50 amounted to 16 nM.

Consider `Cn1nc(C(=O)NCc2ccc(Cl)nc2)c2c1C(=O)N(CC1(S(=O)(=O)C(C)(C)CO)CC1)CC2` [Example 51, N-((6-Chloropyridin-3-yl)methyl)-6-((1-((1-hydroxy-2-methylpropan-2-yl)sulfonyl)cyclopropyl)methyl)-1-methyl-7-oxo-4,5,6,7-tetrahydro-1H-pyrazolo[3,4-c]pyridine-3-carboxamide], for which the half-inhibitory concentration (IC50) came to 89 nM.

Consider `Cn1nc(C(=O)NCc2ccc(C#N)cc2)c2c1C(=O)N(CC1(S(=O)(=O)C(C)(C)CO)CC1)CC2` [Example 52, N-(4-Cyanobenzyl)-6-((1-((1-hydroxy-2-methylpropan-2-yl)sulfonyl)cyclopropyl)methyl)-1-methyl-7-oxo-4,5,6,7-tetrahydro-1H-pyrazolo[3,4-c]pyridine-3-carboxamide], for which the IC50 stood at 19 nM.

On to `Cn1nc(C(=O)NCc2ccc(F)cc2)c2c1C(=O)N(CC1(S(=O)(=O)C(C)(C)CO)CC1)CC2` [Example 53, N-(4-Fluorobenzyl)-6-((1-((1-hydroxy-2-methylpropan-2-yl)sulfonyl)cyclopropyl)methyl)-1-methyl-7-oxo-4,5,6,7-tetrahydro-1H-pyrazolo[3,4-c]pyridine-3-carboxamide], for which the IC50 was found to be 70 nM.

Consider `C[C@H](NC(=O)c1nn(C)c2c1CCN(CC1(S(=O)(=O)C(C)(C)CO)CC1)C2=O)c1ccc(C#N)cc1` [Example 54, (S)-N-(1-(4-Cyanophenyl)ethyl)-6-((1-((1-hydroxy-2-methylpropan-2-yl)sulfonyl)cyclopropyl)methyl)-1-methyl-7-oxo-4,5,6,7-tetrahydro-1H-pyrazolo[3,4-c]pyridine-3-carboxamide], for which the IC50 stood at 103 nM.

As for `C[C@@H](NC(=O)c1nn(C)c2c1CCN(CC1(S(=O)(=O)C(C)(C)CO)CC1)C2=O)c1ccc(C#N)cc1` [Example 55, (R)-N-(1-(4-Cyanophenyl)ethyl)-6-((1-((1-hydroxy-2-methylpropan-2-yl)sulfonyl)cyclopropyl)methyl)-1-methyl-7-oxo-4,5,6,7-tetrahydro-1H-pyrazolo[3,4-c]pyridine-3-carboxamide], the IC50 is more than 25000 nM.

For the compound `Cn1nc(C(=O)NCc2ccc(C#N)cc2)c2c1C(=O)N(CC1(S(=O)(=O)C(C)(C)COC(F)F)CC1)CC2` [Example 58, N-(4-Cyanobenzyl)-6-((1-((1-(difluoromethoxy)-2-methylpropan-2-yl)sulfonyl)cyclopropyl)methyl)-1-methyl-7-oxo-4,5,6,7-tetrahydro-1H-pyrazolo[3,4-c]pyridine-3-carboxamide], the half-inhibitory concentration (IC50) amounted to 24 nM.
